Measurements as given in US8173131B2, “Compositions and methods for modulating RSV infection and immunity” (PerkinElmer Health Sciences, Inc., priority 2000, dated 2012).

B1: G glycoprotein: purified G glycoprotein isolated from RSV/A2-infected Vero cells (protein)
chain: MSKNKDQRTAKTLERTWDTLNHLLFISSCLYKLNLKSVAQITLSILAMIISTSLIIAAIIFIASANHKVTPTTAIIQDATSQIKNTTPTYLTQNPQLGISPSNPSEITSQITTILASTTPGVKSTLQSTTVKTKNTTTTQTQPSKPTTKQRQNKPPSKPNNDFHFEVFNFVPCSICSNNPTCWAICKRIPNKKPGKKTTTKPTKKPTLKTTKKDPKPQTTKSKEVPTTKPTEEPTINTTKTNIITTLLTSNTTGNPELTSQMETFHSTSSEGNPSPSQVSTTSEYPSQPSSPPNTPRQ

Test system: murine spleen leukocyte cell migration
Experiment: Murine leukocyte chemotaxis in modified Boyden chamber
Assay type: cell-based, mouse
Procedure: The chemotactic index was determined from the fold increase of murine spleen leukocyte cell migration toward the chemoattractant (e.g., Fkn or G glycoprotein) over the leukocyte migration toward media alone control, using modified Boyden chambers. Fkn, G glycoprotein, recombinant polyhistidine-tagged G glycoprotein (GHIS), anti-CX3CR1 monoclonal antibody (2A9-1), normal rabbit serum, rabbit anti-CX3CR1 serum, anti-G glycoprotein monoclonal antibody (131-2G) or anti-F glycoprotein monoclonal antibody (131-2A) were added to the upper chamber to examine antagonism of cell migration toward the chemoattractant in the lower chamber.
Leukocyte chemotaxis toward Fkn, G glycoprotein or media was measured according to Boyden^46 using 24 well plates (Costar, Cambridge, Mass.) with 3 μm filter inserts (Nalge Nunc, Rochester, N.Y.) coated with an extracellular matrix consisting primarily of laminin, collagen IV and proteoglycan (ECM, Sigma, St. Louis, Mo.). For murine studies, 5×10^5 naïve spleen cells was placed in the upper chamber and 10 nM mouse Fkn or 10 nM G glycoprotein, anti-CX3CR1 antibody, anti-G or anti-F glycoprotein monoclonal antibody, normal rabbit sera, rabbit anti-CCR5 sera or media was placed in the upper or lower chamber as appropriate. For human studies, 10^6 density gradient purified (Lymphocyte Separation Media, ICN Biomedicals, Aurora, Ohio, per manufacture instructions) peripheral blood mononuclear cells (PBMC) from normal human adult donors was placed in the upper chamber in the presence or absence of 1 μM peptide RT33, and 10 nM human Fkn, 10 nM G glycoprotein or 1 μM peptide RT33 placed in the lower chambers. The modified Boyden chamber was incubated at 37° C. for 4-6 h, the inserts removed, washed in PBS (GIBCO BRL), fixed in 3% gluteraldehyde and stained in formalin-buffered 0.01% crystal violet. Chemotactic cells were visualized with a microscope. Chemotactic cells were analyzed for CX3CR1 expression by collecting cells from the upper or lower modified Boyden chambers, antibody staining (2A9-1) and flow cytometry as described. Leucocytes chemotactic toward G or Fkn expressed a higher percent of CX3CR1 in the lower (25-30%) versus upper chamber (7-11%).

[1] = substance added to upper chamber as antagonist

Row | Molecule | chemotactic index toward G glycoprotein [1] | inhibition of leukocyte chemotaxis toward G glycoprotein (substance in upper chamber) | chemotactic index toward Fkn [1] | inhibition of leukocyte chemotaxis toward Fkn (substance in upper chamber)
1 | Fkn: CX3C chemokine fractalkine (R&D), ligand of CX3CR1 [reference compound] | 1.2 | approximately 75% | – | –
2 | B1 | – | – | 3.2 | approximately 37%
